{"source": "patent US10786521B2", "about": "“Methods and compositions for treatment of COPD diseases” (Shanghai KE Pharmaceutical Co., LTD, priority 2014, dated 2020)", "key": {"[1]": {"tested_on": "cytosolic calcium in primary airway smooth muscle cells", "assay": "Calcium image (Fluo-4) of primary airway smooth muscle cells stimulated with acetylcholine", "format": "cell-based", "conditions": "10 μM compound, then 100 μM acetylcholine; around 16 to 18 minutes", "description": "Primary airway smooth muscle cells were stimulated with 100 μM acetylcholine (ACh) (upper panels), resulting elevation and maintenance of calcium signals (arrow heads indicate typical alteration of the cells) for 8 minutes. After washing out ACh, new buffer containing 10 μM Kudinoside D was added, and then stimulated with 100 μM acetylcholine.\nCalcium image (1-3): Ca^2+ signal was measured by recording 488 nm laser excited Fluo-4 fluorescence with a laser confocal microscope (FV-1000, Olympus). After 3 times washing with D-Hanks solution, primary cultured airway smooth muscle cells were loaded with 2.5 μM Fluo-4 AM and 0.02% pluronic acid (F127) in D-Hanks for 30 min at room temperature. Then washed 3 times with D-Hanks, incubated in H-T buffer at 37° C. for 40 min. Ca^2+ signal was measured by recording 488 nm laser excited Fluo-4 fluorescence with a laser confocal microscope (FV-1000, Olympus)."}, "[2]": {"tested_on": "airway smooth muscle (bronchial rings)", "assay": "Relaxation of evoked isometric force of bronchial rings (wire myograph)", "format": "cell-based, mice", "description": "Briefly, the entire respiratory tree was rapidly removed and immersed in Krebs-Henseleit buffer (118.1 mM NaCl, 4.7 mM KCl, 1.2 mM MgSO4, 2.5 mM CaCl2, 1.0 mM NaH2PO4, 25 mM NaHCO3 and 11.1 mM glucose, pH 7.4). Bronchial rings, 2 mm in length, were isolated from pulmonary bronchi using a dissection microscope. Then the bronchial segments were mounted in a small-vessel wire myograph chamber (Danish Myo Technology, Aarhus, Denmark) by threading on two steel wires (40 μm in diameter) secured to two supports. One support was attached to a force transducer for measurements of isometric force development, and the other was attached to a micrometer controlling ring circumference. The preparation was kept in the chamber, immersed in 5 ml of Krebs-Henseleit solution, bubbled with 5% CO2 and 95% O2 and maintained at 37° C. The initial isometric tension of bronchial ring was set to 0 mN prior to equilibration for 20 min. The bronchial ring was then stretched in order to keep the force at 5 mN followed by an additional equilibration for 20 min. The isometric forces produced by bronchial ring was recorded with a data acquisition and analysis program (Danish Myo Technology, Aarhus, Denmark).\nThe robust relaxation effect and low risk of toxicity of KE on airway smooth muscle indicates its promising prospects for development. To identify the active ingredients of KE, the KE was divided into three parts including EtOAc phase, n-BuOH phase and water phase using EtOAc and n-BuOH sequential extraction. Upon the airway smooth muscle rings reached a relative steady contraction state evoked by MCh, accumulated volume of these three phases was added to assess the relaxation capacity. […] On the other hand, 1 μL of EtOAc phase just relaxed the rings to 90%.\nTheir dose-responsive effect on relaxation of airway smooth muscle was measured. When the force evoked by acetylcholine reached a relatively steady state, kudinosides were added to the bath in cumulative concentrations (0.1 μM, 0.3 μM, 1 μM, 3 μM, 10 μM, 30 μM). […] When the concentration of kudinoside D increased to 10 μM, about 50% of the force was relaxed. Strikingly, upon treatment with 30 μM of kudinoside D, more than 80% of the force was relaxed (FIG. 5B). Similarly, 30 μM of kudinoside A also led to 80% inhibition of evoked force. Note that the relaxation effect of kudinosides was completely reversible, because the relaxed muscles restored response to MCh after washing off."}, "[3]": {"tested_on": "asthmatic airway constriction in acute asthma mouse model", "assay": "Airway resistance (Rrs, FlexiVent) in OVA-induced, methacholine-challenged asthma mice", "format": "in vivo, C57BL/6 mice", "description": "Asthma mice were established as reported previously. Briefly, six to eight-week-old female C57BL/6 mice were carried out by intraperitoneal injection of 100 μg ovalbumin and 4 mg Imject Alum (ThermoFisher Scientific) in total volume of 0.2 mL on days 0 and 14. These mice were then challenged with 1.5%-2% aerosolized ovalbumin for 1 h on days 24, 25 and 26. The efficacy of drugs was evaluated by measuring airway resistance in these mice 24 h after the last challenge.\n(§1) The airway resistance was measured through an invasive method as described in previous reports. In brief, the mice were anesthetized with 240 mg/kg Avertin and the trachea was cannulated with an 18-gauge metal needle. Mechanical ventilation (FlexiVent; SCIREQ Inc., Montreal, Canada) was applied at a frequency of 150 breaths per minute, a tidal volume of 10 ml/kg, and positive end-expiratory pressure of 2.5 cm H2O. Prior to methacholine challenge, deep inflation was applied followed by administration of aerosolized PBS to obtain stabilization of airway resistance (Rrs, cmH2O·s/mL). The Rrs after PBS was considered to be the baseline. Then mice were challenged with sequential concentrations of methacholine with a dose of 2.0, 4.0, 8.0, 16, 32 and 64 mg/mL by an ultrasonic nebulizer until reaching bronchoconstrictive phase that was four to five folds greater than baseline. Three minutes after the last dose of methacholine inhalation, the reagents were delivered by the same ultrasonic nebulizer. The Rrs measurements were performed every 30 s throughout the experiments. The negative control for these studies was PBS, because all the solvents for reagents used here were PBS. As a positive control, albuterol (3 μg; Sigma), the most widely used β-agonist as an effective bronchodilator for asthma therapy, was used.\nas §1, with “Acute asthma model mice were established as reported previously. Briefly, six to eight-week-old female C57BL/6 mice were carried out by intraperitoneal injection of 100 μg ovalbumin and 4 mg Imject Alum (ThermoFisher Scientific) in total volume of 0.2 mL on days 0 and 14. These mice were then challenged with 1.5%-2% aerosolized ovalbumin for 1 h on days 24, 25 and 26. The efficacy of drugs by measuring airway resistance in these mice 24 h was evaluated after the last challenge. The airway” for “The airway”"}}}
{"smiles": "C[C@@H]1O[C@@H](O[C@H]2[C@H](O[C@H]3CC[C@@]4(C)C(CC[C@]5(C)C4C=CC4=C6[C@]7(CC[C@](C)(OC7=O)[C@@]6(C)O)CC[C@]45C)C3(C)C)OC[C@H](O)[C@@H]2O[C@@H]2O[C@H](CO)[C@@H](O)[C@H](O)[C@H]2O)[C@H](O)[C@H](O)[C@H]1O", "note": "(stereo partly drawn) [Kudinoside D]", "values": [{"measurement": "cytosolic calcium signal after acetylcholine stimulation", "setting": "[1]", "result": "significant reduction of calcium"}, {"measurement": "force relaxed at 10 μM", "setting": "[2]; force evoked by acetylcholine, cumulative concentrations, 10 μM", "result": "about 50%"}, {"measurement": "force relaxed / inhibition of evoked force at 30 μM", "setting": "[2]; force evoked by acetylcholine, cumulative concentrations, 30 μM", "result": "more than 80%"}, {"measurement": "relaxation of evoked force of airway smooth muscle / bronchial rings", "setting": "[2]; in vitro, concentration not given", "result": "significantly relaxed bronchial rings in a dose-dependent manner"}, {"measurement": "reduction of airway resistance, 0.03 μg", "setting": "[3]; 0.03 μg inhaled", "result": "slight reduction"}, {"measurement": "airway resistance reduced to, at 1 minute after inhalation, 0.03 μg", "setting": "[3]; 0.03 μg inhaled, 1 minute", "result": "69.65±5.87", "unit": "%"}, {"measurement": "reduction of airway resistance, 0.3 μg", "setting": "[3]; 0.3 μg inhaled", "result": "significant reduction of airway resistance"}, {"measurement": "airway resistance reduced to, at 1 minute after inhalation, 0.3 μg", "setting": "[3]; 0.3 μg inhaled, 1 minute", "result": "67.79±6.77", "unit": "%"}, {"measurement": "reduction of airway resistance at 3 minutes after inhalation compared with 3 μg albuterol, 0.3 μg", "setting": "[3]; 0.3 μg inhaled, 3 minutes", "result": "more reduction of airway resistance than that of 3 μg of albuterol"}, {"measurement": "reduction of airway resistance, 3 μg", "setting": "[3]; 3 μg inhaled", "result": "significant reduction of airway resistance"}, {"measurement": "airway resistance reduced to, at 1 minute after inhalation, 3 μg", "setting": "[3]; 3 μg inhaled, 1 minute", "result": "45.81±6.87", "unit": "%"}, {"measurement": "reduction of airway resistance at 3 minutes after inhalation compared with 3 μg albuterol, 3 μg", "setting": "[3]; 3 μg inhaled, 3 minutes", "result": "more reduction of airway resistance than that of 3 μg of albuterol"}]}
